Source: PubChem BioAssay (NCI)
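Tested at 5 concentrations; 48 h exposure; 96-well plates; endpoints linearly interpolated, else capped at highest concentration. TGI is the concentration that stops growth completely.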

Key:
Experiment in all cases: NCI tumour cell line growth inhibition, 48 h
KM12 colon = test system: KM12 colon
NCI-H23 lung = test system: NCI-H23 lung
OVCAR-8 ovarian = test system: OVCAR-8 ovarian
HOP-92 NSCLC = test system: HOP-92 NSCLC
MALME-3M melanoma = test system: MALME-3M melanoma
PC-3 prostate = test system: PC-3 prostate
MDA-N = test system: MDA-N
HOP-62 NSCLC = test system: HOP-62 NSCLC
786-0 renal = test system: 786-0 renal
A549 NSCLC = test system: A549 NSCLC
NCI-H522 lung = test system: NCI-H522 lung
SW-620 colon = test system: SW-620 colon
OVCAR-4 ovarian = test system: OVCAR-4 ovarian
MDA-MB-435 = test system: MDA-MB-435
K-562 leukemia = test system: K-562 leukemia
SNB-75 CNS = test system: SNB-75 CNS
OVCAR-5 ovarian = test system: OVCAR-5 ovarian

SMILES | TGI (KM12 colon) [µM] | TGI (NCI-H23 lung) [µM] | TGI (OVCAR-8 ovarian) [µM] | TGI (HOP-92 NSCLC) [µM] | TGI (MALME-3M melanoma) [µM] | TGI (PC-3 prostate) [µM] | TGI (MDA-N) [µM] | TGI (HOP-62 NSCLC) [µM] | TGI (786-0 renal) [µM] | TGI (A549 NSCLC) [µM] | TGI (NCI-H522 lung) [µM] | TGI (SW-620 colon) [µM] | TGI (OVCAR-4 ovarian) [µM] | TGI (MDA-MB-435) [µM] | TGI (K-562 leukemia) [µM] | TGI (SNB-75 CNS) [µM] | TGI (OVCAR-5 ovarian) [µM]
O=C(O[C@@H](/C=C/c1ccccc1)P1(=O)N(Cc2ccccc2)[C@H]2CCCC[C@@H]2N1Cc1ccccc1)c1ccccc1 | 14.8 | 36 | > 100 | 45.2 | 31.6 | 8.54 | > 100 | 10.8 | > 100 | > 100 | > 100 | > 100 | > 100 | > 100 | > 100 | > 100 | > 100
O=C1CSC(/C=C/c2ccccc2)N1c1nc2cc3sc(N4C(=O)CSC4/C=C/c4ccccc4)nc3cc2s1 (configuration not stated) | > 100 | > 100 | > 100 | > 100 | > 100 | > 100 | > 100 | > 100 | > 100 | > 100 | > 100 | > 100 | > 100 | > 100 | > 100 | > 100 | > 100
Nc1ccc2c(O)cc(=O)[nH]c2n1 | > 100 | > 100 | > 100 | > 100 | > 100 | > 100 | > 100 |  | > 100 | > 100 | > 100 | > 100 | > 100 | > 100 | > 100 | > 100 | > 100
COc1ccc(C2NC(=S)Nc3c2c(=O)oc2c3ccc3ccccc32)cc1 (configuration not stated) | > 100 | > 100 | > 100 | > 100 | > 100 | > 100 | > 100 | > 100 | > 100 | > 100 | > 100 | > 100 | > 100 | > 100 | > 100 | 96.4 | > 100
CC(C)C1C(=O)N(c2c(F)c(F)c(F)c(F)c2F)C(=S)N1CCS(=O)c1ccccc1 (configuration not stated) | 32.6 | 33.3 | 32.6 | 34.8 | 30.2 | 29.3 | 32.4 | 40.8 | 32.1 | 40.1 | 12.6 | 35.5 | 31.1 | 32.3 | 39.6 | > 58.7 | 32.5
COc1ccc(N=NC(=O)NC(Cc2ccccc2)C(=O)O)cc1 (configuration not stated) | > 100 | > 100 | > 100 | > 100 | > 100 | > 100 | > 100 | > 100 | > 100 | > 100 | > 100 | > 100 | > 100 | > 100 | > 100 | > 100 | > 100
CC#CC(O)(C(=O)OCCCN(C)C)C1CCCCC1 (configuration not stated) | > 100 | > 100 | > 100 | > 100 | > 100 | > 100 | > 100 | > 100 | > 100 | > 100 |  | > 100 |  | > 100 | > 100 | > 100 | > 100
CC(O)(Cc1ccccc1C#N)Cc1ccccc1C#N | > 100 |  | > 100 | > 100 | > 100 | > 100 | > 100 | > 100 | > 100 | > 100 | > 100 | > 100 | > 100 | > 100 | > 100 | 98.9 | > 100
C=CCn1c(-c2ccc([N+](=O)[O-])cc2)cs/c1=N\C(P(=O)(O)O)P(=O)(O)O | > 100 | > 100 | > 100 | > 100 | > 100 | > 100 | > 100 | > 100 | > 100 | > 100 | > 100 | > 100 |  | > 100 | > 100 | > 100 | > 100
COC(=O)C(N)CCCC(N)C(=O)NC(C)C(=O)NC(CCC(=O)NCCNCCNc1c2ccccc2nc2cccc([N+](=O)[O-])c12)C(N)=O (configuration not stated) | 67.2 | 9.91 | 42.3 | 23.8 | 24.8 | 29.5 | 28.1 | 53.7 | > 31 | > 43.6 |  | 47.3 | 8.05 | 20.1 | 20.7 | 26.1 | > 100
O=C1/C(=C\Oc2ccc(F)cc2)N2CCC1CC2 |  | > 100 | > 100 | > 100 | > 100 | > 100 | > 100 | > 100 | > 100 | > 100 | > 100 |  | > 100 | > 100 | > 100 | > 100 | > 100
COc1cc(NS(C)(=O)=O)ccc1Nc1cc[nH]c2ccc3nccc3c12 | 28.2 | 29.8 | 28.8 | 24.8 | 28.7 | 26 | 30.8 | 30.6 | 27.7 | 34.9 | 22.6 | 41 | 29.7 | 30.1 | 25.7 |  | 30.8
CC(=O)Nc1c(S(=O)(=O)c2ccccc2)c(C)c(C)n1CCN(C)C | > 100 | > 100 | > 100 | > 100 | > 100 | > 100 | > 100 |  | > 100 | > 100 | > 100 | > 100 | > 100 | > 100 | > 100 | > 100 | > 100
Oc1ccc(O)c(CNc2ccc(C(O)C(F)(F)F)cc2)c1 (configuration not stated) |  | 56.9 | > 100 | 27.7 | 31 | > 100 | 25.9 | 43 | 29 | > 100 | 5.67 | > 100 | 30.3 | 47.4 | > 100 | > 100 | 40.8
